Reference: patent US10287300B2 (Merck Patent GmbH, priority 2012, dated 2019)

What was measured:
His-AKT (Full Length) = His-AKT (Full Length) (Homo sapiens (Human), UniProt P31749); experiment: AKT enzyme assay; format: biochemical; conditions: 160 uM ATP, 90 min at 25° C.
Procedure: A TTP Mosquito liquid handling instrument was used to place 125 nl of the appropriate concentration of inhibitor in 100% DMSO (for a dose response curve calculation) into each well of a 384-well plate. To this reaction components were added to a final volume of 12.5 μl: • 0.1 ng/μl His-AKT (Full Length), (Invitrogen, Part # P2999, Lot #641228C). • 160 uM ATP (Fluka, 02055) • 1 mM DTT (Sigma, D0632) • 1 mM MgCl2 (Sigma, M1028) • 1 μM substrate peptide (sequence FITC-AHA-GRPRTSSFAEG-NH2), • synthesized by Tufts Peptide Synthesis service. • 100 mM HEPES pH 7.5 (Calbiochem, 391338) • 0.015% Brij-35 (Sigma, B4184)
The reaction was incubated for 90 min at 25° C., and then stopped by the addition of 70 μl of Stop buffer (100 mM HEPES pH 7.5, 0.015% Brij-35, 10 mM EDTA (Sigma, E7889)).
The plate was read on a Caliper LC 3000 in an Off-Chip mobility shift assay format, using the following parameters for a 12-sipper chip: screening pressure −2.3 psi, upstream voltage −500, and downstream voltage −3000. These conditions caused unphosphorylated substrate and phosphorylated product peptide to resolve as separate peaks allowing direct measurement of percentage of conversion of substrate to product. The percent conversion was plotted against concentration of inhibitor to produce a sigmoidal dose response curve, from which an IC50 was calculated.

[1] = target: P70S6K (T412E mutant, Millipore) (Homo sapiens (Human), UniProt P23443, T412E); experiment: P70S6K enzyme assay; format: biochemical; conditions: 24 μM ATP, 90 min at 25° C.
Chain of P70S6K (T412E mutant, Millipore) (P23443 whole entry T412E): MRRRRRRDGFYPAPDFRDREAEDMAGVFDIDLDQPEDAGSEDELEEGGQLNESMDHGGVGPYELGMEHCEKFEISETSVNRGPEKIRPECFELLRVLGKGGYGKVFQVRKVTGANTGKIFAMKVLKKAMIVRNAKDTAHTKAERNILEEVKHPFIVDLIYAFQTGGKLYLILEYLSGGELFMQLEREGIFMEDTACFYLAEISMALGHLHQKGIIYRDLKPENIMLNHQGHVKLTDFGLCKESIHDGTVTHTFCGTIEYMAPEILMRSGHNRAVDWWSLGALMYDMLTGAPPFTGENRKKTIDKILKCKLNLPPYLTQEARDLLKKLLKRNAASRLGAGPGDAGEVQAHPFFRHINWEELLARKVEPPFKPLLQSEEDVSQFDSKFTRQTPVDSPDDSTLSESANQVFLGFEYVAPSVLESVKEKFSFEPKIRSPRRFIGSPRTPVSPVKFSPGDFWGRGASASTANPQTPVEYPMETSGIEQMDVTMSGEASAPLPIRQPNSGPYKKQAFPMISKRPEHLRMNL
Procedure: P70S6K inhibitor compounds were diluted and plated in 96 well plates. A reaction mixture including the following components was then added to the compound plate to initiate the enzyme reaction; P70S6K (3 nM, T412E mutant, Millipore) was mixed with 24 μM ATP in an assay buffer containing 100 mM Hepes (pH 7.5), 5 mM MgCl2, 1 mM DTT, 0.015% Brij and 1 μM of the substrate peptide FITC-AHA-AKRRRLSSLRA-OH (derived from the S6 ribosomal protein sequence, FITC=fluorescein isothiocyanate, AHA=6-aminohexanoic acid). The reaction was incubated for 90 min at 25° C., before the addition of 10 mM EDTA to stop the reaction. The proportion of substrate and product (phosphorylated) peptide was analysed on a Caliper Life Sciences Lab Chip 3000, using a pressure of −1.4 psi, and upstream and downstream voltages of −3000 and −700 respectively. Product peaks were resolved before substrate peaks on the resulting chromatograms.

Chain of His-AKT (Full Length) (P31749 whole entry): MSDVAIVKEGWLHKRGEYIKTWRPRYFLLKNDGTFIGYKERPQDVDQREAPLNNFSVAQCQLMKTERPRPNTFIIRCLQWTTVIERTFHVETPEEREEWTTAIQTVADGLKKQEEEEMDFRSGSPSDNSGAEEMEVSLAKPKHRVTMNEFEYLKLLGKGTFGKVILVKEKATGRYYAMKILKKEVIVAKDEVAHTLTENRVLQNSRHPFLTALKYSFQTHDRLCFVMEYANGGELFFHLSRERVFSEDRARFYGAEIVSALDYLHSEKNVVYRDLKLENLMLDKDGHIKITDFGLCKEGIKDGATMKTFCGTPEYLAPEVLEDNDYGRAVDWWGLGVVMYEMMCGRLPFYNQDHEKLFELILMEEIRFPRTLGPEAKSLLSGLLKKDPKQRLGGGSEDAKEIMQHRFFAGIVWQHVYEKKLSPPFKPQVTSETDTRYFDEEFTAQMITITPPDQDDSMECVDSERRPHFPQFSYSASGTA

| Structure (SMILES) | IC50 (His-AKT (Full Length)) [µM] | IC50 [1] [µM] |
| --- | --- | --- |
| CN(C)CC(c1ccc(C(F)(F)F)cc1)N1CCN(c2ncnc3c2NC(=O)CN3)CC1 (stereo not shown) [Compound A28, 4-{4-[2-dimethylamino-1-(4-trifluoromethyl-phenyl)-ethyl]-piperazin-1-yl}-7,8-dihydro-5H-pteridin-6-one] | 0.101 to 0.5 | 0.501 to 1 |
| O=C1CNc2ncnc(N3CCN(C(CN4CCCC4)c4ccc(Cl)cc4)CC3)c2N1 (stereo not shown) [Compound A30, 4-{4-[1-(4-chloro-phenyl)-2-(pyrrolidin-yl)-ethyl]-piperazin-1-yl}-7,8-dihydro-5H-pteridin-6-one] | 0.501 to 1 | 0.501 to 1 |
| O=C1CNc2ncnc(N3CCN(C(CN4CCCCC4)c4ccc(F)cc4)CC3)c2N1 (stereo not shown) [Compound A31, 4-{4-[1-(4-fluoro-phenyl)-2-(piperidin-yl)-ethyl]-piperazin-1-yl}-7,8-dihydro-5H-pteridin-6-one] | > 1 | > 1 |
| O=C1CNc2ncnc(N3CCN(C(CN4CCCC4)c4ccccc4F)CC3)c2N1 (stereo not shown) [Compound A35, 4-(4-(1-(2-fluorophenyl)-2-(pyrrolidin-1-yl)ethyl)piperazin-1-yl)-7,8-dihydropteridin-6(5H)-one] | > 1 | > 1 |
| CN(C)CC(c1ccccc1F)N1CCN(c2ncnc3c2NC(=O)CN3)CC1 (stereo not shown) [Compound A36, 4-(4-(2-(dimethylamino)-1-(2-fluorophenyl)ethyl)piperazin-1-yl)-7,8-dihydropteridin-6(5H)-one] | > 1 | > 1 |
| O=C1CNc2ncnc(N3CCN(C(CN4CCC4)c4ccccc4F)CC3)c2N1 (stereo not shown) [Compound A37, 4-(4-(2-(azetidin-1-yl)-1-(2-fluorophenyl)ethyl)piperazin-1-yl)-7,8-dihydropteridin-6(5H)-one] | > 1 | > 1 |
| NCC(c1ccccc1Cl)N1CCN(c2ncnc3c2NC(=O)CN3)CC1 (stereo not shown) [Compound A39, 4-(4-(2-amino-1-(2-chlorophenyl)ethyl)piperazin-1-yl)-7,8-dihydropteridin-6(5H)-one] | > 1 | > 1 |
| CNCC(c1ccccc1Cl)N1CCN(c2ncnc3c2NC(=O)CN3)CC1 (stereo not shown) [Compound A41, 4-(4-(1-(2-chlorophenyl)-2-(methylamino)ethyl)piperazin-1-yl)-7,8-dihydropteridin-6(5H)-one] | > 1 | > 1 |
| O=C1CNc2ncnc(N3CCN(C(CN4CCCC4)c4ccccc4Cl)CC3)c2N1 (stereo not shown) [Compound A43, 4-(4-(1-(2-chlorophenyl)-2-(pyrrolidin-1-yl)ethyl)piperazin-1-yl)-7,8-dihydropteridin-6(5H)-one] | > 1 | > 1 |
| Cc1ccccc1C(CN1CCCC1)N1CCN(c2ncnc3c2NC(=O)CN3)CC1 (stereo not shown) [Compound A46, 4-(4-(2-(pyrrolidin-1-yl)-1-(o-tolyl)ethyl)piperazin-1-yl)-7,8-dihydropteridin-6(5H)-one] | > 1 | > 1 |
| NCC(c1ccc(F)c(F)c1)N1CCN(c2ncnc3c2NC(=O)CN3)CC1 (stereo not shown) [Compound A48] | > 1 | > 1 |
| CN(C)CC(c1ccc(F)c(F)c1)N1CCN(c2ncnc3c2NC(=O)CN3)CC1 (stereo not shown) [Compound A49, 4-(4-(1-(3,4-difluorophenyl)-2-(dimethylamino)ethyl)piperazin-1-yl)-7,8-dihydropteridin-6(5H)-one] | > 1 | > 1 |
| CNCC(c1ccc(F)c(F)c1)N1CCN(c2ncnc3c2NC(=O)CN3)CC1 (stereo not shown) [Compound A50, 4-(4-(1-(3,4-difluorophenyl)-2-(methylamino)ethyl)piperazin-1-yl)-7,8-dihydropteridin-6(5H)-one] | > 1 | > 1 |
| O=C1CNc2ncnc(N3CCN(C(CN4CCCC4)c4ccc(F)c(F)c4)CC3)c2N1 (stereo not shown) [Compound A52, 4-(4-(1-(3,4-difluorophenyl)-2-(pyrrolidin-1-yl)ethyl)piperazin-1-yl)-7,8-dihydropteridin-6(5H)-one] | > 1 | > 1 |
| O=C1CNc2ncnc(N3CCN(C(CN4CCCCC4)c4ccc(F)c(F)c4)CC3)c2N1 (stereo not shown) [Compound A53, 4-(4-(1-(3,4-difluorophenyl)-2-(piperidin-1-yl)ethyl)piperazin-1-yl)-7,8-dihydropteridin-6(5H)-one] | > 1 | > 1 |
| O=C1CNc2ncnc(N3CCN(C(CN4CCC4)c4ccc(F)c(Cl)c4)CC3)c2N1 (stereo not shown) [Compound A55, 4-(4-(2-(azetidin-1-yl)-1-(3-chloro-4-fluorophenyl)ethyl)piperazin-1-yl)-7,8-dihydropteridin-6(5H)-one] | > 1 | > 1 |
| O=C1CNc2ncnc(N3CCN(C(CN4CCCC4)c4ccc(F)c(Cl)c4)CC3)c2N1 (stereo not shown) [Compound A56, 4-(4-(1-(3-chloro-4-fluorophenyl)-2-(pyrrolidin-1-yl)ethyl)piperazin-1-yl)-7,8-dihydropteridin-6(5H)-one] | > 1 | > 1 |

The remaining lines, values ahead:

| IC50 (His-AKT (Full Length)) [µM] | IC50 [1] [µM] | Structure (SMILES) |
| --- | --- | --- |
| > 1 | > 1 | O=C1CNc2ncnc(N3CCN(C(CN4CCCC4)c4ccc(F)cc4)CC3)c2N1 (stereo not shown) [Compound A29, 4-{4-[1-(4-fluoro-phenyl)-2-(pyrrolidin-yl)-ethyl]-piperazin-1-yl}-7,8-dihydro-5H-pteridin-6-one] |
| 0.501 to 1 | > 1 | O=C1CNc2ncnc(N3CCN(C(CN4CCCCC4)c4ccc(Cl)cc4)CC3)c2N1 (stereo not shown) [Compound A32, 4-{4-[1-(4-chloro-phenyl)-2-(piperidin-yl)-ethyl]-piperazin-1-yl}-7,8-dihydro-5H-pteridin-6-one] |
| 0.501 to 1 | > 1 | O=C1CNc2ncnc(N3CCN(C(CN4CCCCC4)c4ccc(C(F)(F)F)cc4)CC3)c2N1 (stereo not shown) [Compound A33, 4-{4-[1-(4-trifluoro-phenyl)-2-(piperidin-yl)-ethyl]-piperazin-1-yl}-7,8-dihydro-5H-pteridin-6-one] |
| > 1 | > 1 | O=C1CNc2ncnc(N3CCN(C(CN4CCCC4)c4ccc(C(F)(F)F)cc4)CC3)c2N1 (stereo not shown) [Compound A34, 4-{4-[2-Pyrrolidin-1-yl-1-(4-trifluoromethyl-phenyl)-ethyl]-piperazin-1-yl}-7,8-dihydro-5H-pteridin-6-one] |
| > 1 | > 1 | O=C1CNc2ncnc(N3CCN(C(CN4CCCCC4)c4ccccc4F)CC3)c2N1 (stereo not shown) [Compound A38, 4-(4-(1-(2-fluorophenyl)-2-(piperidin-1-yl)ethyl)piperazin-1-yl)-7,8-dihydropteridin-6(5H)-one] |
| > 1 | > 1 | CN(C)CC(c1ccccc1Cl)N1CCN(c2ncnc3c2NC(=O)CN3)CC1 (stereo not shown) [Compound A40, 4-(4-(1-(2-chlorophenyl)-2-(dimethylamino)ethyl)piperazin-1-yl)-7,8-dihydropteridin-6(5H)-one] |
| > 1 | > 1 | O=C1CNc2ncnc(N3CCN(C(CN4CCC4)c4ccccc4Cl)CC3)c2N1 (stereo not shown) [Compound A42, 4-(4-(2-(azetidin-1-yl)-1-(2-chlorophenyl)ethyl)piperazin-1-yl)-7,8-dihydropteridin-6(5H)-one] |
| > 1 | > 1 | O=C1CNc2ncnc(N3CCN(C(CN4CCCCC4)c4ccccc4Cl)CC3)c2N1 (stereo not shown) [Compound A44, 4-(4-(1-(2-chlorophenyl)-2-(piperidin-1-yl)ethyl)piperazin-1-yl)-7,8-dihydropteridin-6(5H)-one] |
| > 1 | > 1 | Cc1ccccc1C(CN(C)C)N1CCN(c2ncnc3c2NC(=O)CN3)CC1 (stereo not shown) [Compound A45, 4-(4-(2-(dimethylamino)-1-(o-tolyl)ethyl)piperazin-1-yl)-7,8-dihydropteridin-6(5H)-one] |
| > 1 | > 1 | Cc1ccccc1C(CN1CCCCC1)N1CCN(c2ncnc3c2NC(=O)CN3)CC1 (stereo not shown) [Compound A47, 4-(4-(2-(piperidin-1-yl)-1-(o-tolyl)ethyl)piperazin-1-yl)-7,8-dihydropteridin-6(5H)-one] |
| > 1 | > 1 | O=C1CNc2ncnc(N3CCN(C(CN4CCC4)c4ccc(F)c(F)c4)CC3)c2N1 (stereo not shown) [Compound A51, 4-(4-(2-(azetidin-1-yl)-1-(3,4-difluorophenyl)ethyl)piperazin-1-yl)-7,8-dihydropteridin-6(5H)-one] |
| > 1 | > 1 | CN(C)CC(c1ccc(F)c(Cl)c1)N1CCN(c2ncnc3c2NC(=O)CN3)CC1 (stereo not shown) [Compound A54, 4-(4-(1-(3-chloro-4-fluorophenyl)-2-(dimethylamino)ethyl)piperazin-1-yl)-7,8-dihydropteridin-6(5H)-one] |
